Measurements taken from paper PMC12247152, “Nature‐Inspired Compounds Targeting Escherichia coli WrbA as Biofilm‐Modulating Agents: Computational Design, Synthesis, and Biological Evaluation” (Archiv Der Pharmazie, 2025).

Biological target: T1, WrbA (Escherichia coli, UniProt P0A8G6)
T1 construct: recombinant WrbA protein
Assay: microscale thermophoresis (MST)
Assay type: binding
Settings: read-out: K d ± confidence

T1 sequence (P0A8G6 2-198): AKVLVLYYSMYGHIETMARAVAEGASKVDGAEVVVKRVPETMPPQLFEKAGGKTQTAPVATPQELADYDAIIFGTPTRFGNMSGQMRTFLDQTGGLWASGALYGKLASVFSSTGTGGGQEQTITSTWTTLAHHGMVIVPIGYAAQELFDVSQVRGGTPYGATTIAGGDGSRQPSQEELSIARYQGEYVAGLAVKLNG

SMILES | Kd
CC1(C)CC(=O)c2c(O)cc(OCC(N)=O)cc2O1 [1a, 2‐[(5‐Hydroxy‐2,2‐dimethyl‐4‐oxochroman‐7‐yl)oxy]acetamide] | 18.7 ± 6.3 µM
CC1(C)CC(=O)c2c(O)cc(OCC(=O)NCCNCc3ccccc3)cc2O1 [1c, N‐[2‐(Benzylamino)ethyl]‐2‐[(5‐hydroxy‐2,2‐dimethyl‐4‐oxochroman‐7‐yl)oxy]acetamide] | 1.4 ± 0.7 µM
CC1(C)CC(=O)c2c(O)cc(OCC(=O)NCc3cccc(Cl)c3)cc2O1 [1d, N‐(3‐Chlorobenzyl)‐2‐[(5‐hydroxy‐2,2‐dimethyl‐4‐oxochroman‐7‐yl)oxy]acetamide] | 5 ± 1.8 µM
CC1(C)CC(=O)c2c(O)cc(OCC(=O)NCc3cccc4ccccc34)cc2O1 [1e, 2‐[(5‐Hydroxy‐2,2‐dimethyl‐4‐oxochroman‐7‐yl)oxy]‐N‐(naphthalen‐1‐ylmethyl)acetamide] | 2.1 ± 1.3 µM
